Data published in patent publication US20230365568A1, “PLK1 POLO BOX DOMAIN INHIBITORS AND METHOD OF TREATING CANCER” (The United States of America,as represented by the …, priority 2020, published 2023).
Like-named read-outs stand apart in the source and are kept apart here. Marks after values point to notes of the source that are not given here.

Legend:
HeLa cells = assay: Mitotic arrest and antiproliferation in HeLa cells (DAPI staining, cell counts); assay type: cell-based; conditions: for population of rounded cells with mitotically arrested or apoptotic chromosome morphologies: 25 μM, 12 h
Method: HeLa cells were cultured as recommended by the American Type Culture Collection (ATCC). […] Immunostaining was carried out using anti-Plk1 (Santa Cruz Biotechnology, Santa Cruz, CA), anti-Cep63 (MilliporeSigma), anti-CREST (Antibodies Incorp, Davis, CA), and anti-α-tubulin (Sigma, St. Louis, MO) antibodies.
(§1) To quantify fluorescence signal intensities, images were acquired under the same settings and the images obtained after the maximum-intensity projection of z-stacks were analyzed using the Zeiss ZEN v2.1 software (Carl Zeiss Microscopy, LLC). All the quantifications were performed with randomly chosen fields from at least three independent experiments. All values are given as mean±s. D. P values were calculated by unpaired t test from the mean data of each group in Graph Pad Prism (***P<0.001). The statistical details including the definitions and value of n (e.g., number of experimental replicates, cells, etc.) And standard deviations are provided herein.

[1] = tested on: Plk1 localization to centrosomes and kinetochores in HeLa cells; assay: Immunostaining of Plk1 localization and spindle morphology in HeLa cells; assay type: cell-based; conditions: 25 μM, 2 h
Method: HeLa cells were cultured as recommended by the American Type Culture Collection (ATCC). Asynchronously growing cells were treated with control DMSO or the indicated concentration of 143. To reveal chromosome morphologies, cells were treated with 4′,6-diamidino-2-phenylindole (DAPI), fixed, and subjected to confocal microscopy. Immunostaining was carried out using anti-Plk1 (Santa Cruz Biotechnology, Santa Cruz, CA), anti-Cep63 (MilliporeSigma), anti-CREST (Antibodies Incorp, Davis, CA), and anti-α-tubulin (Sigma, St. Louis, MO) antibodies. Confocal images were acquired using a Zeiss LSM780 equipped with a plan-apochromat 63× (N.A. 1.4) oil-immersion objective lens, 34-channel GaAsP spectral detector (Carl Zeiss Microscopy, LLC.), and 8-bit, 0.5-μm z-steps.
as §1
To directly examine whether the observed mitotic arrest was the consequence of inhibiting Plk1 PBD function, immunostaining analysis was carried out to determine the ability of intracellular Plk1 to localize to centrosomes and kinetochores, an event that requires PBD-mediated protein-protein interaction (Lee et al., Trends Pharmacol. Sci. 36, 858-877 (2015); and Elia et al., Cell 115, 83-95 (2003)). […] A short treatment time (i.e., 2 h), which was intended to minimize a potential indirect effect of these inhibitors, was sufficient to delocalize greater than 70% of Plk1 signals from centrosomes (marked by anti-Cep63 signals) and 90% of those from kinetochores (marked by anti-CREST signals).

[2] = tested on: multiple myeloma-derived L363 cells; assay: MTS cell proliferation assay in L363 cells; assay type: cell-based; conditions: for GI50: read-out: Cell efficacy, GI50 ± sd
Method: MTS Assay. […] 96™ AQueous One Solution Cell Proliferation Assay (MTS) kit (Promega, WI). Briefly, asynchronously growing L363 cells cultured in a 96-well plate were treated with the indicated compounds for 48 h.

[3] = Microsomal metabolic stability, rat liver microsomes (RLM)
[4] = Stability in human liver microsomes; assay type: in vitro ADME
[5] = Stability in mouse liver microsomes; assay type: in vitro ADME
[6] = Stability in rat liver microsomes (Table 10); assay type: in vitro ADME
[7] = Stability in human cytosol; assay type: in vitro ADME
[8] = Stability in mouse cytosol; assay type: in vitro ADME
Stability in rat cytosol = assay type: in vitro ADME
full-length human Plk1 = full-length human Plk1 (Homo sapiens (Human), UniProt P53350); assay: ELISA-based Plk1 PBD-binding inhibition assay; conditions: for IC50: Plk1 PBD, n = 3 unless noted
Chain of full-length human Plk1 (P53350 whole entry): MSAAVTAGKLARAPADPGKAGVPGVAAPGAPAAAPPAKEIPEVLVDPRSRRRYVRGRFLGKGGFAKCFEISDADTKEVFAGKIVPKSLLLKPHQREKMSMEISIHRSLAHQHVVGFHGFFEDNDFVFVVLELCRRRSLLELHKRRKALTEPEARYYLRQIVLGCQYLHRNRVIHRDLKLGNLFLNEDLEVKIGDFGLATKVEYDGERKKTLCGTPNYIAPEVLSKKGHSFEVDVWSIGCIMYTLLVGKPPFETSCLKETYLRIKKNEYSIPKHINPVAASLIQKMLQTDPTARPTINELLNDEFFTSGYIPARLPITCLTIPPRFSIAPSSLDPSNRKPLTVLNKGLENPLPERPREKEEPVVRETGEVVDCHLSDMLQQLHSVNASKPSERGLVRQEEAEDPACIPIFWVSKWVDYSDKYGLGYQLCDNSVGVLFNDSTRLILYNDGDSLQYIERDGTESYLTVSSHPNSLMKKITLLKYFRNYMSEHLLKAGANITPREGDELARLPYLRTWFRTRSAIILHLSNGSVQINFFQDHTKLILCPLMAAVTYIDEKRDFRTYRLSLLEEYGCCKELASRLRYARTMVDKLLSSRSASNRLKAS
Method: An ELISA-based PBD-binding inhibition assay was performed essentially as described previously. […] The wells were washed once with PBS+0.05% Tween20 (PBST) and incubated with 200 μl of PBS plus 1% BSA (blocking buffer) for 1 h to prevent non-specific binding. HEK293A lysates expressing HA-EGFP-Plk1 were prepared in a TBSN [20 mM Tris-HCl (pH 8.0), 150 mM NaCl, 0.5% NP-40, 5 mM EGTA, 2 mM MgCl2, 1.5 mM EDTA, and protease inhibitor cocktail (Roche)]+20% DMSO buffer (˜20 μg total lysates in 100 μl buffer), mixed with the indicated amount of the competitors (p-T78 peptide and its derivative compounds) for 30 min, provided onto the biotinylated peptide-coated ELISA wells, and then incubated with constant rocking for 1 h at 25° C. Following the incubation, ELISA plates were washed 5 times with PBST. To detect bound HA-EGFP-Plk1, the plates were probed for 2 h with 100 μl/well of anti-HA antibody at a concentration of 0.5 μg/ml in the blocking buffer and then washed 5 times. The plates were further probed for 1 h with 100 μl/well of HRP-conjugated secondary antibody (GE Healthcare) at a 1:1,000 dilution in the blocking buffer. The plates were washed 5 times with PBST and incubated with 100 μl/well of 3,3′,5,5′-tetramethylbenzidine solution (Sigma-Aldrich, St. Louis, MO) as substrate until a desired absorbance was reached. The reactions were stopped by the addition of 100 μl/well of stop solution (Cell Signaling Technology, Danvers, MA). The optical density (O.D.) was measured at 450 nm by using a Perkin-Elmer Enspire Multimode Plate reader (PerkinElmer, Inc., Boston, MA). Data obtained from more than three independent experiments were analyzed by GraphPad (San Diego, CA) Prism software version 7.
ELISA-based PBD-binding Inhibition Assay. […] The reaction products were measured at 450 nm by using a Perkin-Elmer Enspire Multimode Plate reader (PerkinElmer, Inc., Boston, MA). Data obtained from more than three independent experiments were analyzed by GraphPad (San Diego, CA) Prism software version 7.

[9] = Homo sapiens, L-363, 48 h treatment

With CS(=O)(=O)NCCn1c(=O)c2cc(F)ccc2n2c(=S)[nH]nc12 [compound 75] the “population of rounded cells with mitotically arrested or apoptotic chromosome morphologies” value (HeLa cells) was “approximately 60%”, the “Plk1 signals delocalized from centrosomes” value [1] was “greater than 70%” and the “Plk1 signals delocalized from kinetochores” value [1] was over 90%. For the same molecule, the “effect on Plk1 localization” value [1] was “greatly diminished Plk1 signal intensities at both centrosomes and kinetochores”, the GI50 ([2]; 48 h treatment) was 4.1 µM and the “Solub.” value (Aqueous solubility; aqueous solubility) was over 53 µg/mL. For the same molecule, the “t1/2 (min, RLM)” value ([3]; rat liver microsomes) was over 30 min.

In the case of CCCn1c(=O)c2cccc(F)c2n2c(Sc3c([N+](=O)[O-])ncn3C)nnc12 [73 (NCK167), 9-fluoro-1-((1-methyl-4-nitro-1H-imidazol-5-yl)thio)-4-propyl-[1,2,4]triazolo[4,3-a]quinazolin-5(4H)-one], the GI50 [2, 9] is reported as 14 ± 0.39 µM.

For O=c1c2cc(F)ccc2n2c(=S)[nH]nc2n1CCc1ccc(Cl)cc1 [Example 43, 4-(4-chlorophenethyl)-7-fluoro-1-thioxo-2,4-dihydro-[1,2,4]triazolo[4,3-a]quinazolin-5(1H)-one], the “population of rounded cells with mitotically arrested or apoptotic chromosome morphologies” value (HeLa cells) was “failed to show any of these phenotypes” and the “Cell efficacy, GI50 ± sd (μM)” value ([2]; 48 h treatment) was “failed to induce any a detectable level of cellular response”.

With CCCn1c(=O)c2cccc(F)c2n2c(=S)[nH]nc12 [compound 139, 9-fluoro-4-propyl-1-thioxo-2,4-dihydro-[1,2,4]triazolo[4,3-a]quinazolin-5(1H)-one] the “induction of mitotic arrest (rounded cells with apoptotic or aberrant chromosome morphologies)” value (HeLa cells; 100 μM) was “lacked a detectable level of cellular response”.

In the case of NCCCn1c(=O)c2cc(F)ccc2n2c(=S)[nH]nc12 [compound 68], the “t1/2 Human LM” value [4] is reported as over 120 min, the “t1/2 Mouse LM” value [5] is reported as over 120 min and the “t1/2 Rat LM” value [6] is reported as 106.37 min. The “t1/2 Human cytosol” value [7] was over 120 min, the “t1/2 Mouse cytosol” value [8] was over 120 min and the “t1/2 Rat cytosol” value (Stability in rat cytosol) was over 120 min. The “Solub.” value (Aqueous solubility; Free base) was 27 µg/mL, the “Solub.” value (Aqueous solubility; TFA salt) was over 43 µg/mL and the “t1/2 (min, RLM)” value ([3]; Free base) was >30^c >30^d min. The “t1/2 (min, RLM)” value ([3]; TFA salt) was >30^c >30^d min.

Work on CCCn1c(=O)c2sc(C)cc2n2c(Sc3c(C(F)(F)F)ncn3C)nnc12 [76 (NCK174), 7-methyl-1-((1-methyl-4-(trifluoromethyl)-1H-imidazol-5-yl)thio)-4-propylthieno[2,3-e][1,2,4]triazolo[4,3-a]pyrimidin-5(4H)-one] yielded a GI50 [2, 9] of over 400 µM.

With COCCCn1c(=O)c2ccccc2n2c(=S)[nH]nc12 [compound 28] the IC50 (full-length human Plk1) was 1.75 ± 0.19 µM and the “Solub.” value (Aqueous solubility; aqueous solubility) was 31.2 µg/mL.

In the case of Cc1cccc(-n2c(=O)c3ccccc3n3c(=S)[nH]nc23)c1C [compound 33], the IC50 (full-length human Plk1) is reported as 1.85 ± 0.12 µM.

For CCCn1c(=O)c2sc(C)cc2n2c(Sc3c([N+](=O)[O-])ncn3C)nnc12 [75 (NCK173), 7-methyl-1-((1-methyl-4-nitro-1H-imidazol-5-yl)thio)-4-propylthieno[2,3-e][1,2,4]triazolo[4,3-a]pyrimidin-5(4H)-one], the GI50 [2, 9] was 4.14 ± 0.31 µM.

In the case of CC(=O)Nc1ccc2c(c1)c(=O)n(CCc1ccccc1)c1n[nH]c(=S)n21 [Example 14, N-(5-oxo-4-phenethyl-1-thioxo-1,2,4,5-tetrahydro-[1,2,4]triazolo[4,3-a]quinazolin-7-yl)acetamide], the “population of rounded cells with mitotically arrested or apoptotic chromosome morphologies” value (HeLa cells) is reported as “failed to show any of these phenotypes” and the “Cell efficacy, GI50 ± sd (μM)” value ([2]; 48 h treatment) is reported as “failed to induce any a detectable level of cellular response”.

For CCCCn1c(=O)c2ccccc2n2c(=S)[nH]nc12 [compound 23], the IC50 (full-length human Plk1) was 1.03 ± 0.14 µM, the “PAMPA” value was 77.5 ×10⁻⁶ cm/s and the “Solub.” value (Aqueous solubility; aqueous solubility) was 8.5 µg/mL. The “t1/2 (min, RLM)” value ([3]; rat liver microsomes) was over 30 min.

With CCCn1c(=O)c2scc(C)c2n2c(Sc3c([N+](=O)[O-])ncn3C)nnc12 [74 (NCK170), 8-methyl-1-((1-methyl-4-nitro-1H-imidazol-5-yl)thio)-4-propylthieno[2,3-e][1,2,4]triazolo[4,3-a]pyrimidin-5(4H)-one] the GI50 [2, 9] was 25.8 ± 0.26 µM.

For C=CCn1c(=O)c2ccccc2n2c(=S)[nH]nc12 [compound 22], the IC50 (full-length human Plk1) was 1.31 ± 0.03 µM and the “Solub.” value (Aqueous solubility; aqueous solubility) was 19.4 µg/mL.

For CC(C)CCn1c(=O)c2ccccc2n2c(=S)[nH]nc12 [compound 25], the IC50 (full-length human Plk1) was 1.73 ± 0.08 µM and the “Solub.” value (Aqueous solubility; aqueous solubility) was 8.0 µg/mL.

In the case of O=c1c2cc(F)ccc2n2c(=S)[nH]nc2n1CCc1ccncc1 [compound 85], the “population of rounded cells with mitotically arrested or apoptotic chromosome morphologies” value (HeLa cells) is reported as “induced Plk1 delocalization and mitotic arrest at a level similar to those of compound 75”, the GI50 ([2]; 48 h treatment) is reported as 3.11 µM and the “Solub.” value (Aqueous solubility; aqueous solubility) is reported as 10.9 µg/mL. The “t1/2 (min, RLM)” value ([3]; rat liver microsomes) was over 30 min.

With CCCCCn1c(=O)c2ccccc2n2c(=S)[nH]nc12 [compound 24] the IC50 (full-length human Plk1) was 1.97 ± 0.11 µM and the “Solub.” value (Aqueous solubility; aqueous solubility) was 4.2 µg/mL.

In the case of CCCn1c(=O)c2ccccc2n2c(=S)n(CC(=O)c3ccccc3)nc12 [compound 39], the IC50 (full-length human Plk1) is reported as over 50 µM.

In the case of Cc1cc2c(s1)c(=O)n(CC1CC1)c1nnc(Sc3c([N+](=O)[O-])ncn3C)n21 [85 (NCK182), 4-(cyclopropylmethyl)-7-methyl-1-((1-methyl-4-nitro-1H-imidazol-5-yl)thio)thieno[2,3-e][1,2,4]triazolo[4,3-a]pyrimidin-5(4H)-one], the GI50 [2, 9] is reported as 3.11 µM.

With CCOCCCn1c(=O)c2ccccc2n2c(=S)[nH]nc12 [compound 29] the “lower IC50 compared to 14” value (full-length human Plk1; ELISA assay) was 29%, the IC50 (full-length human Plk1) was 1.68 ± 0.11 µM and the “Solub.” value (Aqueous solubility; aqueous solubility) was 15.5 µg/mL.

CCCn1c(=O)c2sc(C)cc2n2c(Sc3c(S(N)(=O)=O)ncn3C)nnc12 [77 (NCK175), 1-methyl-5-((7-methyl-5-oxo-4-propyl-4,5-dihydrothieno[2,3-e][1,2,4]triazolo[4,3-a]pyrimidin-1-yl)thio)-1H-imidazole-4-sulfonamide] gave a GI50 [2, 9] of over 400 µM.
